Test: Binding affinity using guinea pig brain membrane preparations, towards Opioid receptor delta 1 using [3H]DPDPE as radioligand

## CC[C@@H]1CN2CCc3c([nH]c4cccc(O)c34)[C@@H]2C[C@@H]1/C(=C\OC)C(=O)OC
  Ki: 30900 nM

## CC[C@@H]1CN2CC[C@@]3(O)C(=Nc4cccc(OC)c43)[C@@H]2C[C@@H]1/C(=C\OC)C(=O)OC
  Ki: 155 nM

## CC[C@@H]1CN2CCc3c([nH]c4cccc(OC)c34)[C@@H]2C[C@@H]1/C(=C\OC)C(=O)OC [CHEBI:6956]
  Ki: 60 nM

## CC[C@@H]1CN2CCc3c([nH]c4ccccc34)[C@@H]2C[C@@H]1/C(=C\OC)C(=O)OC [CHEBI:70073]
  Ki: 2880 nM

— BindingDB's records for doi:10.1021/jm010576e (Chiba University, 2002)
